PubChem BioAssay AID1963960 (Molecular Pharmacology Branch, DTP, NCI, 2024)

Tested on: MDA-MB-468 spheroids with HUVEC/MSC, viability
Experiment: Anticancer human tumor MDA-MB-468 cell line growth inhibition [PI3K];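 further: spheroids exposed to agents for seven days before readout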;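 on viability, T/C: 100% = DMSO vehicle control viability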
Conditions: for IC50: curve of first compound; for viability, T/C: stronger effect = lower value
Text: Combinatorial screen of targeted agents with the PI3K inhibitors inavolisib, alpelisib, duvelisib, and copanlisib in multi-cell type tumor spheroids
A high-throughput screen of multi-cell type tumor spheroids was designed to identify active combinations of targeted small molecules and PI3K pathway inhibitors. Complex spheroids include a stromal component modeled by human endothelial cells (HUVEC) and fibroblasts modeled by human mesenchymal stem cells (MSCs). The concentration ranges selected for each drug and investigational agent were based upon clinically achievable concentrations if the clinical Cmax of the agent was known.
Compounds. The drugs and investigational agents: inavolisib (NSC800729), alpelisib (NSC765974), duvelisib (NSC772469), copanlisib (NSC816437), ipatasertib (NSC767898), afuresertib (NSC778305), talazoparib (NSC767125), sapanisertib (NSC764658), selumetinib (NSC741078), tovorafenib (DAY101, NSC766906), vemurafenib (NSC761431), ravoxertinib (NSC781343), sotorasib (NSC818433), MRTX1133 (NSC 836407), abemaciclib (NSC 768073), palbociclib (NSC758247), venetoclax (NSC 766270), SY5609 (NSC837396), enzalutamide (NSC755605), and darolutamide (NSC825331), were obtained from the National Cancer Institute (NCI) Developmental Therapeutics Program Chemical Repository. The FDA-approved anticancer drug set is available from the NCI Developmental Therapeutics Program. […] The stock solutions were prepared in dimethyl sulfoxide (DMSO, Sigma-Aldrich, St. Louis, MO, cat. D2650) at 800-fold the tested concentration and stored at -70 degrees C prior to their use. All drugs and investigational agents were tested over a range starting from a high concentration at or near the clinical Cmax and decreasing in half-log increments. If the clinical Cmax for an agent had not been determined, the highest concentration tested was 10 microM.
Cell Culture. All cells were maintained in an incubator at 37 degrees C and 5% CO2 with 95% humidity. The PDC lines were cultured according to standard operating procedures established by the NCI PDMR (https://pdmr.cancer.gov/sops/default.htm). All PDCs were thawed and cultured in Matrigel-coated flasks prepared with a working solution of 1X Ham's F-12 nutrient mix, without supplementation (Invitrogen, Waltham, MA, cat. 11765054), 100 U/mL penicillin-streptomycin (Invitrogen, cat. 15140122), and 2.5% Matrigel (Corning Inc., Corning, NY, cat. 354248) for the first three passages. The 354836-022-R-J1-PDC, 475296-252-R-J1-PDC, and 997726-040-R-J2-PDC lines were cultured in 6A media, which includes advanced DMEM/F-12 (Thermo Fisher Scientific, cat. 12634028), 10 mM HEPES (Thermo Fisher Scientific, cat. 15630080), 1X GlutaMAX supplement (Thermo Fisher Scientific, cat. 35050061), 0.1 mg/mL primocin (InvivoGen, San Diego, CA, cat. ant-pm-2), 10% defined fetal bovine serum, heat inactivated (HyClone Laboratories Inc., Logan, UT, cat. SH30070.03HI), 50% L-WRN conditioned media (ATCC, cat. CRL-3276), 1.25 mM N-Acetyl-L-cysteine (Sigma-Aldrich, cat. A9165), 10 mM nicotinamide (Sigma-Aldrich, cat. N0636), 1X B-27 supplement (Thermo Fisher Scientific, cat. 17504044), 1X N-2 supplement (Thermo Fisher Scientific, cat. 17502048), and 10 microM Y-27632 dihydrochloride (Tocris Bioscience, Bristol, United Kingdom, cat. 1254). The 624824-186-R-J2-PDC line was cultured in 6C/Colon 1B media, which includes all 6A media components plus 50 ng/mL human EGF recombinant protein (Thermo Fisher Scientific, cat. PHG0311). […]

Structure (SMILES): CNC(=O)c1ccc(N2C(=S)N(c3ccc(C#N)c(C(F)(F)F)c3)C(=O)C2(C)C)cc1F + CC(Nc1ccc2c(c1)OCCn1cc(N3C(=O)OCC3C(F)F)nc1-2)C(N)=O
- IC50 (second compound 0.00316 µM): > 10 µM
- IC50 (second compound 0.01 µM): > 10 µM
- IC50 (second compound 0.0316 µM): > 10 µM
- IC50 (second compound 0.1 µM): > 10 µM
- IC50 (second compound 0.316 µM): > 10 µM
- IC50 (second compound 1 µM): > 10 µM
- viability, T/C (second compound 0.00316 µM, first compound 0.0316 µM): 95.2%
- viability, T/C (second compound 0.00316 µM, first compound 0.1 µM): 94.6%
- viability, T/C (second compound 0.00316 µM, first compound 0.316 µM): 94.9%
- viability, T/C (second compound 0.00316 µM, first compound 1 µM): 98.9%
- viability, T/C (second compound 0.00316 µM, first compound 3.16 µM): 94.3%
- viability, T/C (second compound 0.00316 µM, first compound 10 µM): 76.7%
- viability, T/C (second compound 0.01 µM, first compound 0.0316 µM): 100%
- viability, T/C (second compound 0.01 µM, first compound 0.1 µM): 107%
- viability, T/C (second compound 0.01 µM, first compound 0.316 µM): 105%
- viability, T/C (second compound 0.01 µM, first compound 1 µM): 107%
- viability, T/C (second compound 0.01 µM, first compound 3.16 µM): 82.3%
- viability, T/C (second compound 0.01 µM, first compound 10 µM): 76.5%
- viability, T/C (second compound 0.0316 µM, first compound 0.0316 µM): 90.7%
- viability, T/C (second compound 0.0316 µM, first compound 0.1 µM): 105%
- viability, T/C (second compound 0.0316 µM, first compound 0.316 µM): 80.5%
- viability, T/C (second compound 0.0316 µM, first compound 1 µM): 98.5%
- viability, T/C (second compound 0.0316 µM, first compound 3.16 µM): 80.8%
- viability, T/C (second compound 0.0316 µM, first compound 10 µM): 62.2%
- viability, T/C (second compound 0.1 µM, first compound 0.0316 µM): 85.9%
- viability, T/C (second compound 0.1 µM, first compound 0.1 µM): 84.1%
- viability, T/C (second compound 0.1 µM, first compound 0.316 µM): 83.5%
- viability, T/C (second compound 0.1 µM, first compound 1 µM): 85.8%
- viability, T/C (second compound 0.1 µM, first compound 3.16 µM): 82.1%
- viability, T/C (second compound 0.1 µM, first compound 10 µM): 56.4%
- viability, T/C (second compound 0.316 µM, first compound 0.0316 µM): 95.6%
- viability, T/C (second compound 0.316 µM, first compound 0.1 µM): 84.6%
- viability, T/C (second compound 0.316 µM, first compound 0.316 µM): 75.8%
- viability, T/C (second compound 0.316 µM, first compound 1 µM): 95.2%
- viability, T/C (second compound 0.316 µM, first compound 3.16 µM): 94%
- viability, T/C (second compound 0.316 µM, first compound 10 µM): 57.1%
- viability, T/C (second compound 1 µM, first compound 0.0316 µM): 88%
- viability, T/C (second compound 1 µM, first compound 0.1 µM): 76.4%
- viability, T/C (second compound 1 µM, first compound 0.316 µM): 79.9%
- viability, T/C (second compound 1 µM, first compound 1 µM): 79.9%
- viability, T/C (second compound 1 µM, first compound 3.16 µM): 73.3%
- viability, T/C (second compound 1 µM, first compound 10 µM): 57.1%

Structure (SMILES): Cn1cnc2c(F)c(Nc3ccc(Br)cc3Cl)c(C(=O)NOCCO)cc21 + CC(Nc1ccc2c(c1)OCCn1cc(N3C(=O)OCC3C(F)F)nc1-2)C(N)=O
- IC50 (second compound 0.00316 µM): > 3 µM
- IC50 (second compound 0.01 µM): > 3 µM
- IC50 (second compound 0.0316 µM): > 3 µM
- IC50 (second compound 0.1 µM): > 3 µM
- IC50 (second compound 0.316 µM): > 3 µM
- IC50 (second compound 1 µM): 1.52 µM
- viability, T/C (second compound 0.00316 µM, first compound 0.00949 µM): 83.2%
- viability, T/C (second compound 0.00316 µM, first compound 0.03 µM): 78.1%
- viability, T/C (second compound 0.00316 µM, first compound 0.0949 µM): 81.8%
- viability, T/C (second compound 0.00316 µM, first compound 0.3 µM): 92.6%
- viability, T/C (second compound 0.00316 µM, first compound 0.949 µM): 87.3%
- viability, T/C (second compound 0.00316 µM, first compound 3 µM): 56.7%
- viability, T/C (second compound 0.01 µM, first compound 0.00949 µM): 80%
- viability, T/C (second compound 0.01 µM, first compound 0.03 µM): 88.9%
- viability, T/C (second compound 0.01 µM, first compound 0.0949 µM): 79.9%
- viability, T/C (second compound 0.01 µM, first compound 0.3 µM): 90.4%
- viability, T/C (second compound 0.01 µM, first compound 0.949 µM): 73.9%
- viability, T/C (second compound 0.01 µM, first compound 3 µM): 61.9%
- viability, T/C (second compound 0.0316 µM, first compound 0.00949 µM): 103%
- viability, T/C (second compound 0.0316 µM, first compound 0.03 µM): 86.4%
- viability, T/C (second compound 0.0316 µM, first compound 0.0949 µM): 86.3%
- viability, T/C (second compound 0.0316 µM, first compound 0.3 µM): 83%
- viability, T/C (second compound 0.0316 µM, first compound 0.949 µM): 63.9%
- viability, T/C (second compound 0.0316 µM, first compound 3 µM): 58.6%
- viability, T/C (second compound 0.1 µM, first compound 0.00949 µM): 91.3%
- viability, T/C (second compound 0.1 µM, first compound 0.03 µM): 73.5%
- viability, T/C (second compound 0.1 µM, first compound 0.0949 µM): 70.5%
- viability, T/C (second compound 0.1 µM, first compound 0.3 µM): 77.5%
- viability, T/C (second compound 0.1 µM, first compound 0.949 µM): 66.7%
- viability, T/C (second compound 0.1 µM, first compound 3 µM): 48.9%
- viability, T/C (second compound 0.316 µM, first compound 0.00949 µM): 81.3%
- viability, T/C (second compound 0.316 µM, first compound 0.03 µM): 78.6%
- viability, T/C (second compound 0.316 µM, first compound 0.0949 µM): 64.4%
- viability, T/C (second compound 0.316 µM, first compound 0.3 µM): 67%
- viability, T/C (second compound 0.316 µM, first compound 0.949 µM): 64.1%
- viability, T/C (second compound 0.316 µM, first compound 3 µM): 48.9%
- viability, T/C (second compound 1 µM, first compound 0.00949 µM): 79.4%
- viability, T/C (second compound 1 µM, first compound 0.03 µM): 63.7%
- viability, T/C (second compound 1 µM, first compound 0.0949 µM): 77%
- viability, T/C (second compound 1 µM, first compound 0.3 µM): 69.7%
- viability, T/C (second compound 1 µM, first compound 0.949 µM): 55.1%
- viability, T/C (second compound 1 µM, first compound 3 µM): 39%
